# Measurements reported in patent publication US20230165836A1, “ALPHA-2 ADRENERGIC RECEPTOR AGONISTS FOR THE TREATMENT OF CANCER” (UNIVERSITÉ CATHOLIQUE DE LOUVAIN, priority 2020, published 2023).
# “Also recorded” adds a separate entry of the source.
# Legend:
# [1] = system: immune-resistant autochthonous melanoma tumors (TiRP); experiment: TiRP melanoma with adoptive cell transfer (ACT) of P1A-specific CD8+T cells; assay type: in vivo, TiRP mice; details: 5 mg/kg
# Excerpt: TiRP mice have been created by crossing Ink4a/Are^flox/flox mice with mice carrying a transgenic construct controlled by the tyrosinase promoter and driving the expression of H-Ras ^12V and Trapl a which encodes a MAGE-type tumor antigen P1A; the promoter is separated from the coding region by a stop cassette made of a floxed self-deleting CreER (Huijbers et al., 2006, Cancer Res 66, 3278-3286). Those mice were backcrossed to a B10.D2 background and bred to homozygosity. TCRP1A mice heterozygous for the H-2Ld/P1A35-43-specific TCR transgene were kept on the B10.D2;Rag1^−/− background (Shanker et al., 2004, J Immunol 172, 5069-5077). BALB/c mice were used in tumor transplantation experiments. TiRP-derived T429.11 transplanted melanoma model: T429.11 clone was derived from an induced Amela TiRP tumor referred to as T429. It was cloned from the T429 induced melanoma primary tumor line. Two million of T429.11 tumor cells were injected subcutaneously into recipient mice for tumor establishment (Zhu et al., 2017, Nat Commun. 10; 8(1):1404). Adra2a tm1Bkk mice (Strain Name: B6.129-Adra2a tm1Bkk /J, # 004367) were obtained from Jackson Laboratory (Bar Harbor, Me., USA).
# (§1) A fresh solution of 40H-Tamoxifen was prepared by dissolving 40H-Tamoxifen (Imaginechem®) in 100% ethanol and mineral oil (ratio 1:9) followed by 30 min sonication, and injected subcutaneously (2 mg/200 uL per mouse) in the neck area of gender-matched 7 weeks old TiRP mice. Tumor appearance was monitored daily and tumors were measured three times/week. Tumor volume (in mm^3) was calculated by the following formula: Volume=width^2×length/2.
# For the adoptive cell transfer (ACT), P1A-specific (TCRP1A) CD8+T cells were isolated from spleens and lymph nodes of TCRP1A mice as described hereinabove, and stimulated in vitro by co-culture with irradiated (10,000 rads) L1210.P1A.B7-1 cells (Gajewski et al., 1995, J Immunol 154, 5637-5648) at 1:2 ratio (0.5×10^5 CD8+T cells and 10^5 L1210.P1A.B7-1 cells per well in 48-well plates) in IMDM (GIBCO®) containing 10% fetal bovine serum supplemented with L-arginine (0.55 mM, Merck®), L-asparagine (0.24 mM, Merck®), glutamine (1.5 mM, Merck®), beta-mercaptoethanol (50 μM, Sigma Aldrich®), 50 U mL^−1 penicillin and […] mL^−1 streptomycin (Life Technologies®). Four days later, TCRP1A CD8+T cells were purified on a Lymphoprep gradient (StemCell®) and 10^7 living cells were injected intravenously in 200 μL PBS in TiRP-tumor bearing mice on the day of randomization.
# TiRP-tumor bearing mice received adoptive cell transfer (ACT) of 10^7 P1A-specific activated CD8+T cells and daily injections of vehicle control, clonidine (5 mg/kg, i.p.), or clonidine (5 mg/kg, i.p.) combined with phentolamine (5 mg/kg, i.p.), when the tumor size was around 500 mm^3, until the day of sacrifice. Tumor size was monitored every 2 days. Mice were sacrificed when the tumor in control group reached around 2,000 mm^3.
# TiRP-tumor bearing mice received adoptive cell transfer (ACT) of 10^7 of P1A-specific activated CD8+T cells. Daily injections of 5 mg/kg i.p. of romifidine or clonidine were thus administered from the day of the ACT, when the tumor size was around 500 mm^3, until the day of sacrifice. As shown on FIGS. 5A-B, following romifidine or clonidine administration, tumor infiltration of CD8+T cells was increased. […]
# [2] = system: CT26 colon cancer; experiment: CT26 colon cancer tumor growth (FIGS. 15-16); assay type: in vivo, C57BL/6J mice; details: CT26 colon cancer, FIGS. 15A, 16A
# Excerpt: Tumor infiltration of CD8+cells evaluated at the day of sacrifice by FACS (FIG. 15B). Tumor growth of CT26 colon cancer in NSG mice treated with PBS (Control), clonidine, clonidine mixed with yohimbine, or yohimbine alone (FIG. 15C). FIGS. 16A-C is a set of curves and histograms showing the tumor growth of CT26 colon cancer in C57BL/6J mice treated with PBS (Control, circles), guanabenz (diamonds), guanabenz mixed with yohimbine (light grey inverted triangles), or yohimbine alone (dark grey inverted triangles) (FIG. 16A); the tumor infiltration of CD8+ cells evaluated at the day of sacrifice by FACS (FIG. 16B); and the tumor growth of CT26 colon cancer in NSG mice treated with PBS (Control), guanabenz, guanabenz mixed with yohimbine, or yohimbine alone (FIG. 16C). […] For evaluation of yohimbine on the effect of clonidine and guanabenz, the mice were randomized into different groups when tumors size arrived around 100 mm^3 and received daily injections of guanabenz (5 mg/kg, i.p.), yohimbine (10 mg/kg), a mix of guanabenz (5 mg/kg, i.p.) and yohimbine (10 mg/kg, i.p.), clonidine (5 mg/kg, i.p.), a mix of clonidine (5 mg/kg, i.p.) and yohimbine (10 mg/kg, i.p.) or vehicle control.
# [3] = system: SKOV3 human ovarian tumor cells; details: SKOV3 in NSG mice
# Method: SKOV3 human ovarian tumor cells were injected subcutaneously in immune deficient NSG mice. When tumors were palpable, tumor-bearing mice received adoptive cell transfer of 3×10^6 of allogeneic human PBMC (i.v.) and were injected daily with clonidine (5 mg/kg, i.p.) or vehicle (PBS, i.p.) until sacrifice.
# [4] = system: TiRP melanoma; experiment: TiRP melanoma model, monotherapy; assay type: in vivo; details: TiRP+/+ mice; 5 mg/kg, i.p. daily from tumor size around 250 mm^3
# Method: FIGS. 14A-B is a set of curves showing the tumor growth (melanoma) in TiRP+/+ mice that have received daily injections of guanfacine (5 mg/kg, i.p. triangles; FIG. 14A), clonidine (5 mg/kg, i.p., circles; FIG. 14B), or control (PBS, i.p., squares), when the tumor size was around 250 mm^3 until sacrifice.
# TiRP mice have been created by crossing Ink4a/Are^flox/flox mice with mice carrying a transgenic construct controlled by the tyrosinase promoter and driving the expression of H-Ras ^12V and Trapl a which encodes a MAGE-type tumor antigen P1A; the promoter is separated from the coding region by a stop cassette made of a floxed self-deleting CreER (Huijbers et al., 2006, Cancer Res 66, 3278-3286). Those mice were backcrossed to a B10.D2 background and bred to homozygosity. TCRP1A mice heterozygous for the H-2Ld/P1A35-43-specific TCR transgene were kept on the B10.D2;Rag1^−/− background (Shanker et al., 2004, J Immunol 172, 5069-5077). […]
# as §1
structure (smiles),measurement,setting,value
Clc1cccc(Cl)c1N=C1NCCN1 [clonidine],tumor infiltration of CD8+T cells (%CD8+T cells among total CD45+T cells),"[1]; TiRP mice with ACT, 5 mg/kg i.p. daily from day of ACT, tumor size around 500 mm^3",increase of tumor infiltration of CD8+T cells; also recorded: increased
same,"tumor growth, combined with ACT","[1]; TiRP mice, ACT of 10^7 P1A-specific CD8+T cells, 5 mg/kg i.p. daily",strongly sensitized immune-resistant autochthonous melanoma tumors (TiRP) to adoptive cell transfer (ACT); also recorded: efficiently control the growth; also recorded: inhibited the tumor growth
same,tumor growth,[2],inhibited CT26 colon cancer tumor growth
same,anti-tumor efficacy of human PBMC,"[3]; 3×10^6 PBMC i.v., 5 mg/kg i.p. daily",strongly increased the anti-tumor efficacy of human PBMC
same,expression of CD44 on tumor-infiltrated CD8+T cells,"[3]; PBMC, 5 mg/kg i.p.",increased expression of CD44
same,infiltration of CD4+ human T cells into tumors,"[3]; PBMC, 5 mg/kg i.p.",increased
same,infiltration of CD8+ human T cells into tumors,"[3]; PBMC, 5 mg/kg i.p.",increased
same,"tumor growth, compared to ACT alone","[3]; with ACT, 5 mg/kg i.p. daily",significantly decreased
same,"tumor weight on the day of sacrifice, compared to ACT alone","[3]; with ACT, 5 mg/kg i.p. daily",significantly decreased
same,"tumor volume, monotherapy",[4],efficient in decreasing the tumor volume
